According to PMC6627746, “Pharmacological Properties of the Type 1 Tyramine Receptor in the Diamondback Moth, Plutella xylostella” (International Journal of Molecular Sciences, 2019):
pEC50, pIC50: −log10 of the molar value.

Columns and labels:
PxTAR1 [1] = target: T1, PxTAR1 (Plutella xylostella, UniProt A0A4D6I7S9); assay: intracellular Ca2+ assay, Cal-590 AM, confocal imaging, stable HEK-293 line; type: cell-based
T1 construct: gene tar1; full-length ORF, 467 residues, 52266 Da; lentiviral vector pEB-TAR1-3flag-copGFP(T2A)PURO (3flag tag, GFP co-expressed via T2A)
T1 sequence (A0A4D6I7S9 1-467): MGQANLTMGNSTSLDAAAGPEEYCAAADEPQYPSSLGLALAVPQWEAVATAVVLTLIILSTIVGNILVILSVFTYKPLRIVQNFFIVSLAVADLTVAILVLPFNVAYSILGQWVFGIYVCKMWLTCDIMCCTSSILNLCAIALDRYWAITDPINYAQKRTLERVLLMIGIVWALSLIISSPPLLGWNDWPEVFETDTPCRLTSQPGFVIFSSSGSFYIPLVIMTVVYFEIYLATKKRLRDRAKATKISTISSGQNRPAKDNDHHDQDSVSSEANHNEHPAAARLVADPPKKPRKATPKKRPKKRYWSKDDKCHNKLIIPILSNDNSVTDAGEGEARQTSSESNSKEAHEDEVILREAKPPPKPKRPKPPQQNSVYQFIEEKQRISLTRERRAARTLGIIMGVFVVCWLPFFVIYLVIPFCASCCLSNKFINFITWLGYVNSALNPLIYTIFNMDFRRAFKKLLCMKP

PxTAR1 [2] = target: T1, PxTAR1; assay: cAMP ELISA (Parameter Assay Kit), TAR1/[…] cells; type: cell-based

Row | Structure (SMILES) | pEC50 (PxTAR1 [1]) | pIC50 (PxTAR1 [2])
1 | CNC=Nc1ccc(C)cc1C [DPMF, N2-(2,4-Dimethylphenyl)-N1-methyformamidine] | 7.07 | –
2 | C=C(C)[C@@H]1CC=C(C)C(=O)C1 [L(-)-carvone] | 8.94 | –
3 | NC[C@H](O)c1ccc(O)cc1 [octopamine] | – | 4.86
4 | NCCc1ccc(O)cc1 [tyramine] | 7.88 | 6.35
